In ChEMBL document CHEMBL4507287, “Data for DCP probe MRL-650” (2021):

Assays:
[1] = target: High affinity nerve growth factor receptor (Homo sapiens) (UniProt P04629); details: Compound concentration 1000.0 nM
[2] = system: Phosphatidylinositol 4,5-bisphosphate 3-kinase catalytic subunit alpha isoform (Homo sapiens), P42336 [H1047Y]; details: Compound concentration 1000.0 nM
[3] = target: Dual specificity mitogen-activated protein kinase kinase 3 (Homo sapiens) (UniProt P46734); details: Compound concentration 1000.0 nM
[4] = target: Calcium/calmodulin-dependent protein kinase type 1G (Homo sapiens) (UniProt Q96NX5); details: Compound concentration 1000.0 nM
[5] = system: Mast/stem cell growth factor receptor Kit (Homo sapiens), P10721 [D816H]; details: Compound concentration 1000.0 nM
[6] = target: Sodium-dependent noradrenaline transporter (Homo sapiens) (UniProt P23975); details: Compound concentration 10.0 uM
[7] = target: Receptor tyrosine-protein kinase erbB-3 (Homo sapiens) (UniProt P21860); details: Compound concentration 1000.0 nM
Chain of Receptor tyrosine-protein kinase erbB-3 (Homo sapiens) (P21860 whole entry): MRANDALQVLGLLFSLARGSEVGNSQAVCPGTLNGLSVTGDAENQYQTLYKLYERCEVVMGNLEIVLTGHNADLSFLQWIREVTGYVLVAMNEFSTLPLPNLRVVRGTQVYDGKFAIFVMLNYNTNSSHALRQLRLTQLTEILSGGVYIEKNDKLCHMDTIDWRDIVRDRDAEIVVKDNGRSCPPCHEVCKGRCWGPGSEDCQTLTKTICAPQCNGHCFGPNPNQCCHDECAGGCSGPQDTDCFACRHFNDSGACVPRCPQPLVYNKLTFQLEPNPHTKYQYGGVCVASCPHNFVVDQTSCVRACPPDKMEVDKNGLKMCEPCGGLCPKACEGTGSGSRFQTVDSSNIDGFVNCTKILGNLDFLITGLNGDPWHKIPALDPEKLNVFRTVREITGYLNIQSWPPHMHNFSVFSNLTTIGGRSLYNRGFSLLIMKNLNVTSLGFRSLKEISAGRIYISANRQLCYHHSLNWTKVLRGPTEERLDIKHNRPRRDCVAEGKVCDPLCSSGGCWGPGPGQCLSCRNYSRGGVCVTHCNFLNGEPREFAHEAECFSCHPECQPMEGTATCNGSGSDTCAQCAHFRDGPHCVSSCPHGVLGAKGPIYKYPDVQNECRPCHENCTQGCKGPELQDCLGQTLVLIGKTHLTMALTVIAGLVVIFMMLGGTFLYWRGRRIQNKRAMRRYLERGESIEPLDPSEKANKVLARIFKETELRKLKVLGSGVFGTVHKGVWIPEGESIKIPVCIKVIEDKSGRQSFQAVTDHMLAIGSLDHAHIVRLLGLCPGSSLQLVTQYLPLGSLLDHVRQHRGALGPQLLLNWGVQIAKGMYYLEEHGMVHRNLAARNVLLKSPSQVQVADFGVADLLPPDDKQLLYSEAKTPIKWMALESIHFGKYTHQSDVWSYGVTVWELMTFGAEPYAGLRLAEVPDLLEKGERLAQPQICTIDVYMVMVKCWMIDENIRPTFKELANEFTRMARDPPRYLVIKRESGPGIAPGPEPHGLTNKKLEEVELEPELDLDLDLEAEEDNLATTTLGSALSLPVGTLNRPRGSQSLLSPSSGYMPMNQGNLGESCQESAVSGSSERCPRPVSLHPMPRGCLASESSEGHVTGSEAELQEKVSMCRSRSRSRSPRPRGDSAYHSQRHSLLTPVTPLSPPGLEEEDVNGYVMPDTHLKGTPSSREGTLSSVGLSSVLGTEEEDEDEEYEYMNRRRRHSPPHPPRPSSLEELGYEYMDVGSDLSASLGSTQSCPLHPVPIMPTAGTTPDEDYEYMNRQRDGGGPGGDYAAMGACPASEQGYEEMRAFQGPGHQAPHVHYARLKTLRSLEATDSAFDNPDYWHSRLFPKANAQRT

[8] = target: cGMP-dependent protein kinase 1 (Homo sapiens) (UniProt Q13976); details: Compound concentration 1000.0 nM
Chain of cGMP-dependent protein kinase 1 (Homo sapiens) (Q13976 whole entry): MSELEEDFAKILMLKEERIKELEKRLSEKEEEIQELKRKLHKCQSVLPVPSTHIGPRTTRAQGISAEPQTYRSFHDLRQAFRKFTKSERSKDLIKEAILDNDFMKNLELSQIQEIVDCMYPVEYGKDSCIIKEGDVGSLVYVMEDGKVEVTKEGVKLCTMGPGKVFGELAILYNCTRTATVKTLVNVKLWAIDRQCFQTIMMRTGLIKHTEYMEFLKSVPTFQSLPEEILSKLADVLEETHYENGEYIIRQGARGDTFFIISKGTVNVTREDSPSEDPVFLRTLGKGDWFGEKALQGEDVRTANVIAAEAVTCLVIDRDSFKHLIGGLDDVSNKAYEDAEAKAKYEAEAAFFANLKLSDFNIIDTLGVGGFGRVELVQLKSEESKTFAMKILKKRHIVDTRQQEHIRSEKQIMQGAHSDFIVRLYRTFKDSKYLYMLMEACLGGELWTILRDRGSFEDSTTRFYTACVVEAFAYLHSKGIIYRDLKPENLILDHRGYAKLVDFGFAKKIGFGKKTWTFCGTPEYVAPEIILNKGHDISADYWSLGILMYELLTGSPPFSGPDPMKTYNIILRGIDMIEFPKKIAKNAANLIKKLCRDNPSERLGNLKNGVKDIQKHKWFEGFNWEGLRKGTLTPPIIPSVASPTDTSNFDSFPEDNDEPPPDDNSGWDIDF

[9] = target: Myosin-IIIa (Homo sapiens) (UniProt Q8NEV4); details: Compound concentration 1000.0 nM
Chain of Myosin-IIIa (Homo sapiens) (Q8NEV4 whole entry): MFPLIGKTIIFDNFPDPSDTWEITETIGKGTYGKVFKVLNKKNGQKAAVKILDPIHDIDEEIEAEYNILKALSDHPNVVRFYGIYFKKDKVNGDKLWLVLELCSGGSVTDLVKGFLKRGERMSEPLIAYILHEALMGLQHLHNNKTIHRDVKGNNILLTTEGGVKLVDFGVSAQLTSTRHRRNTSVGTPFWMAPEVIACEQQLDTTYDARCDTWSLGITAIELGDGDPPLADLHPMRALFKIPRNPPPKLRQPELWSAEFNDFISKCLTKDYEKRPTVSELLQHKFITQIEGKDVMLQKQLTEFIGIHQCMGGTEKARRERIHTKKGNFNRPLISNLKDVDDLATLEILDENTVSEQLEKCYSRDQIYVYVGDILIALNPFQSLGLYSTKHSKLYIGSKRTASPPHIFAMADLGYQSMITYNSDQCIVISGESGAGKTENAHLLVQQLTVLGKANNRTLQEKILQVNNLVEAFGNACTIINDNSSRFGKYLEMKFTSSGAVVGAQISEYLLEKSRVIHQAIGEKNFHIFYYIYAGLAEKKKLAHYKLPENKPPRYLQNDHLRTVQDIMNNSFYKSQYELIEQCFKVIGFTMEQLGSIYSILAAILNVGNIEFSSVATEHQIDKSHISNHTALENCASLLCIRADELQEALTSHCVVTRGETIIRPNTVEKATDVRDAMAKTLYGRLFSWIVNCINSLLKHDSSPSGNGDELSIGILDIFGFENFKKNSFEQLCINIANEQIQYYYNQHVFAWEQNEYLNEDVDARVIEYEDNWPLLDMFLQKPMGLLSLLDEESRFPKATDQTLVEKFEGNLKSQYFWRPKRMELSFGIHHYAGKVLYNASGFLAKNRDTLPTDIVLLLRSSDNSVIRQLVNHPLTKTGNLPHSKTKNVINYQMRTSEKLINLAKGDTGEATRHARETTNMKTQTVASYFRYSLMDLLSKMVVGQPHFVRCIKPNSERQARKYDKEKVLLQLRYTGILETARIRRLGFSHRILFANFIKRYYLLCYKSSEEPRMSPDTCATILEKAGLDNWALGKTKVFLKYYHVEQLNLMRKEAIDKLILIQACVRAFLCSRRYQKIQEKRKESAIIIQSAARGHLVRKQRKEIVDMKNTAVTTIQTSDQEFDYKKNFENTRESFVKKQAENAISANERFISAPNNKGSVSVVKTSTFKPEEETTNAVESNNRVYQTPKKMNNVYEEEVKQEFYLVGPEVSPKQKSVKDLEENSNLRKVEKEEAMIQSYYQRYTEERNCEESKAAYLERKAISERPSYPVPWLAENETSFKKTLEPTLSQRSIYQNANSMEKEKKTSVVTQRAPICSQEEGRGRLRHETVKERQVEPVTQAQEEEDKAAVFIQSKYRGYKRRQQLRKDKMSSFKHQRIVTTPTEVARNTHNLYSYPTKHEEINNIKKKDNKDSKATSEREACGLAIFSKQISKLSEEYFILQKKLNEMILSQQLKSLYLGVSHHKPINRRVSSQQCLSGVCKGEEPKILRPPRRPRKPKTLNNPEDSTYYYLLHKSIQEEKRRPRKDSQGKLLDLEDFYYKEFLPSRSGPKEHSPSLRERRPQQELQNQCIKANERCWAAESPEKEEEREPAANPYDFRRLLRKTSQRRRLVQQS

[10] = target: Rho-associated protein kinase 2 (Homo sapiens) (UniProt O75116); details: Compound concentration 1000.0 nM
[11] = target: Cyclin-dependent kinase 19 (Homo sapiens) (UniProt Q9BWU1); details: Compound concentration 1000.0 nM
[12] = target: Serine/threonine-protein kinase BRSK2 (Homo sapiens) (UniProt Q8IWQ3); details: Compound concentration 1000.0 nM
[13] = target: Mitogen-activated protein kinase kinase kinase 1 (Homo sapiens) (UniProt Q13233); details: Compound concentration 1000.0 nM
[14] = target: Glycogen synthase kinase-3 beta (Homo sapiens) (UniProt P49841); details: Compound concentration 1000.0 nM
[15] = target: Tyrosine-protein kinase Fyn (Homo sapiens) (UniProt P06241); details: Compound concentration 1000.0 nM
[16] = target: Mitogen-activated protein kinase 13 (Homo sapiens) (UniProt O15264); details: Compound concentration 1000.0 nM
Chain of Mitogen-activated protein kinase 13 (Homo sapiens) (O15264 whole entry): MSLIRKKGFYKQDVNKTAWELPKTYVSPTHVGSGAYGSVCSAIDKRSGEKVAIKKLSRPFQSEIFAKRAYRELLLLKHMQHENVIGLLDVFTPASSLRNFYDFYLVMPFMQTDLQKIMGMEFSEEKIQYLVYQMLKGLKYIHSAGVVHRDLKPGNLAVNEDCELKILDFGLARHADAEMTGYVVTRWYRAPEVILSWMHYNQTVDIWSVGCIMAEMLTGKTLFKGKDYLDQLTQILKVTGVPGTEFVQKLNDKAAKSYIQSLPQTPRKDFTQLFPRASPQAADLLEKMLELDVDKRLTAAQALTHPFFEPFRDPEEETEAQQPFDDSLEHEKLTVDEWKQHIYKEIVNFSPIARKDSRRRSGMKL

[17] = target: Epidermal growth factor receptor (Homo sapiens) (UniProt P00533); details: Compound concentration 1000.0 nM
[18] = target: Dual specificity protein kinase TTK (Homo sapiens) (UniProt P33981); details: Compound concentration 1000.0 nM
[19] = system: Phosphatidylinositol 4,5-bisphosphate 3-kinase catalytic subunit alpha isoform (Homo sapiens), P42336 [Q546K]; details: Compound concentration 1000.0 nM
Chain of Phosphatidylinositol 4,5-bisphosphate 3-kinase catalytic subunit alpha isoform (Homo sapiens), P42336 [Q546K] (P42336 whole entry Q546K, canonical isoform): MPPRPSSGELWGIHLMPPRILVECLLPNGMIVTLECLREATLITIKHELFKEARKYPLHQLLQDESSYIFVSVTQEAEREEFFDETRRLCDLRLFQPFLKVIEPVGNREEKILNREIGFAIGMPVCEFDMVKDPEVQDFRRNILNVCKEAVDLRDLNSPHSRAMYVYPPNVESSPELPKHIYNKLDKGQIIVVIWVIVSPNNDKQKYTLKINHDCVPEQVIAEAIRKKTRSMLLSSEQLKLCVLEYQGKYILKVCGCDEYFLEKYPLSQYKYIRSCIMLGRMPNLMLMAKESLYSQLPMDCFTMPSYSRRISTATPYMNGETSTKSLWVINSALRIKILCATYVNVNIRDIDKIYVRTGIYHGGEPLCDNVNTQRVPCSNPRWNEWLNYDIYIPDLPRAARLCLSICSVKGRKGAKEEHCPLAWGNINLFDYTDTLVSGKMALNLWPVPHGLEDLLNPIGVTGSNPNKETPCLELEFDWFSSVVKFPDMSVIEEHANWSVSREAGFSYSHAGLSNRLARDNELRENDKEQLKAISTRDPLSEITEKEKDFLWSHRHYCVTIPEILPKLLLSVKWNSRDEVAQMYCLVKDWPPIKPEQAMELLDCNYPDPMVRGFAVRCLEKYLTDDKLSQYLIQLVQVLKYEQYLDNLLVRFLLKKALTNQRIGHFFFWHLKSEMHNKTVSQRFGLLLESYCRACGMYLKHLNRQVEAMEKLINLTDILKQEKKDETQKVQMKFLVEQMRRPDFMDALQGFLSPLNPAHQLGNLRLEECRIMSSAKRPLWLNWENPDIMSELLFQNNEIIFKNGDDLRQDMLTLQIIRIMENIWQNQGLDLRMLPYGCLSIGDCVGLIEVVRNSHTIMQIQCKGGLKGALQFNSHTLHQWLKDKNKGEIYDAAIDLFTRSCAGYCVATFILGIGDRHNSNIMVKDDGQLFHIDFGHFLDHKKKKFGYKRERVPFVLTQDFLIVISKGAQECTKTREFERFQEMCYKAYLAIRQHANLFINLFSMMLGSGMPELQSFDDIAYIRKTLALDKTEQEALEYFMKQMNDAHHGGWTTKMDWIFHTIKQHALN

[20] = target: Mitogen-activated protein kinase kinase kinase 14 (Homo sapiens) (UniProt Q99558); details: Compound concentration 1000.0 nM
[21] = target: Serine/threonine-protein kinase PLK2 (Homo sapiens) (UniProt Q9NYY3); details: Compound concentration 1000.0 nM
[22] = target: Vascular endothelial growth factor receptor 2 (Homo sapiens) (UniProt P35968); details: Compound concentration 1000.0 nM
[23] = target: Serine/threonine-protein kinase ULK1 (Homo sapiens) (UniProt O75385); details: Compound concentration 1000.0 nM
[24] = target: Histamine H1 receptor (Homo sapiens) (UniProt P35367); details: Compound concentration 10.0 uM
[25] = target: Histamine H3 receptor (Homo sapiens) (UniProt Q9Y5N1); details: Compound concentration 10.0 uM
[26] = target: D(1A) dopamine receptor (Homo sapiens) (UniProt P21728); details: Compound concentration 10.0 uM
[27] = target: Tyrosine-protein kinase Blk (Homo sapiens) (UniProt P51451); details: Compound concentration 1000.0 nM
[28] = target: AP2-associated protein kinase 1 (Homo sapiens) (UniProt Q2M2I8); details: Compound concentration 1000.0 nM
[29] = target: Sodium-dependent dopamine transporter (Homo sapiens, UniProt Q01959); details: Compound concentration 10.0 uM
[30] = target: Alpha-2B adrenergic receptor (Homo sapiens) (UniProt P18089); details: Compound concentration 10.0 uM
[31] = target: Homeodomain-interacting protein kinase 4 (Homo sapiens) (UniProt Q8NE63); details: Compound concentration 1000.0 nM
[32] = target: Serine/threonine-protein kinase ULK2 (Homo sapiens) (UniProt Q8IYT8); details: Compound concentration 1000.0 nM
[33] = target: Activin receptor type-2B (Homo sapiens) (UniProt Q13705); details: Compound concentration 1000.0 nM
[34] = target: Serine/threonine-protein kinase MARK1 (Homo sapiens) (UniProt Q9P0L2); details: Compound concentration 1000.0 nM
[35] = target: Focal adhesion kinase 1 (Homo sapiens) (UniProt Q05397); details: Compound concentration 1000.0 nM
[36] = target: Wee1-like protein kinase 2 (Homo sapiens) (UniProt P0C1S8); details: Compound concentration 1000.0 nM
[37] = target: cAMP-dependent protein kinase catalytic subunit PRKX (Homo sapiens) (UniProt P51817); details: Compound concentration 1000.0 nM
[38] = target: Calcium/calmodulin-dependent protein kinase kinase 1 (Homo sapiens) (UniProt Q8N5S9); details: Compound concentration 1000.0 nM
[39] = target: Platelet-derived growth factor receptor alpha (Homo sapiens) (UniProt P16234); details: Compound concentration 1000.0 nM
[40] = target: Muscarinic acetylcholine receptor M3 (Homo sapiens) (UniProt P20309); details: Compound concentration 10.0 uM
[41] = target: Platelet-derived growth factor receptor beta (Homo sapiens) (UniProt P09619); details: Compound concentration 1000.0 nM
[42] = target: NT-3 growth factor receptor (Homo sapiens) (UniProt Q16288); details: Compound concentration 1000.0 nM
[43] = target: Tyrosine-protein kinase ITK/TSK (Homo sapiens) (UniProt Q08881); details: Compound concentration 1000.0 nM
[44] = target: Mitogen-activated protein kinase 6 (Homo sapiens) (UniProt Q16659); details: Compound concentration 1000.0 nM
[45] = system: Tyrosine-protein kinase ABL1 (Homo sapiens), P00519 [F317L]; details: Compound concentration 1000.0 nM
[46] = target: Dual specificity protein kinase CLK1 (Homo sapiens) (UniProt P49759); details: Compound concentration 1000.0 nM

Chain of Phosphatidylinositol 4,5-bisphosphate 3-kinase catalytic subunit alpha isoform (Homo sapiens), P42336 [H1047Y] (P42336 whole entry H1047Y, canonical isoform): as the sequence (P42336 whole entry Q546K, canonical isoform) above, with K546Q, H1047Y counted along it

## CC(=O)c1c(NS(C)(=O)=O)c2cc(-c3ccc(Cl)cc3)c(-c3ccc(Cl)cc3Cl)nc2n(C)c1=O [MRL-CB1-NC]
[1]
  residual activity: 64%
[2]
  residual activity: 96%
[3]
  residual activity: 96%
[4]
  residual activity: 100%
[5]
  residual activity: 70%
[6]
  inhibition: 20.2%
[7]
  residual activity: 85%
[8]
  residual activity: 75%
[9]
  residual activity: 88%
[10]
  residual activity: 100%
[11]
  residual activity: 100%
[12]
  residual activity: 90%
[13]
  residual activity: 94%
[14]
  residual activity: 97%
[15]
  residual activity: 92%
[16]
  residual activity: 97%
[17]
  residual activity: 100%
[18]
  residual activity: 100%
[19]
  residual activity: 86%
[20]
  residual activity: 63%
[21]
  residual activity: 96%
[22]
  residual activity: 82%
[23]
  residual activity: 67%
[24]
  inhibition: 18.8%
[25]
  inhibition: 0.553%
[26]
  inhibition: 14.2%
[27]
  residual activity: 100%
[28]
  residual activity: 100%
[29]
  inhibition: 67.1%
[30]
  inhibition: 67.2%
[31]
  residual activity: 93%
[32]
  residual activity: 97%
[33]
  residual activity: 100%
[34]
  residual activity: 100%
[35]
  residual activity: 100%
[36]
  residual activity: 100%
[37]
  residual activity: 97%
[38]
  residual activity: 100%
[39]
  residual activity: 88%
[40]
  inhibition: 4.36%
[41]
  residual activity: 95%
[42]
  residual activity: 98%
[43]
  residual activity: 97%
[44]
  residual activity: 100%
[45]
  residual activity: 89%
[46]
  residual activity: 100%

## CC(=O)Nc1c(C(C)=O)c(=O)n(C)c2nc(-c3ccc(Cl)cc3Cl)c(-c3ccc(Cl)cc3)cc12 [NAPHTHYRIDINONE]
[1]
  residual activity: 100%
[2]
  residual activity: 100%
[3]
  residual activity: 86%
[4]
  residual activity: 100%
[5]
  residual activity: 100%
[6]
  inhibition: 15.5%
[7]
  residual activity: 100%
[8]
  residual activity: 100%
[9]
  residual activity: 100%
[10]
  residual activity: 100%
[11]
  residual activity: 100%
[12]
  residual activity: 100%
[13]
  residual activity: 100%
[14]
  residual activity: 100%
[15]
  residual activity: 100%
[16]
  residual activity: 100%
[17]
  residual activity: 100%
[18]
  residual activity: 100%
[19]
  residual activity: 100%
[20]
  residual activity: 92%
[21]
  residual activity: 100%
[22]
  residual activity: 94%
[23]
  residual activity: 66%
[24]
  inhibition: -1.39%
[25]
  inhibition: -2.68%
[26]
  inhibition: 2.02%
[27]
  residual activity: 100%
[28]
  residual activity: 100%
[29]
  inhibition: 36.4%
[30]
  inhibition: 16.6%
[31]
  residual activity: 89%
[32]
  residual activity: 100%
[33]
  residual activity: 100%
[34]
  residual activity: 100%
[35]
  residual activity: 100%
[36]
  residual activity: 100%
[37]
  residual activity: 100%
[38]
  residual activity: 100%
[39]
  residual activity: 100%
[40]
  inhibition: -6.59%
[41]
  residual activity: 100%
[42]
  residual activity: 100%
[43]
  residual activity: 100%
[44]
  residual activity: 100%
[45]
  residual activity: 100%
[46]
  residual activity: 100%
